Assay results from EP3057950B1, “PHENYL LINKED QUINOLINYL MODULATORS OF ROR-GAMMA-T” (Janssen Pharmaceutica NV, priority 2013, dated 2015).
“And” between values parts separate entries of the source, which are not always exact repeats. Identical values can stand only once. Counter-ions that a name gives are not always drawn.

Tests used:
[1] = target: T1, wild type human RORγt LBD (Homo sapiens, UniProt P51449); assay: RORγt Reporter Assay (GAL4-RORγt LBD luciferase in HEK293T cells); assay type: cell-based; settings: HEK293T cells; for IC50: compounds for 24 hours, read-out: RORγt reporter Assay, IC50; for inhibition at 6 µM: HEK-293T, read-out: RORγt reporter Assay, % inhibition @ 6 µM, @ 6 µM
T1 construct: expressed in transfected cells; host or cells: HEK293T
T1 sequence (P51449 269-508 limits assumed): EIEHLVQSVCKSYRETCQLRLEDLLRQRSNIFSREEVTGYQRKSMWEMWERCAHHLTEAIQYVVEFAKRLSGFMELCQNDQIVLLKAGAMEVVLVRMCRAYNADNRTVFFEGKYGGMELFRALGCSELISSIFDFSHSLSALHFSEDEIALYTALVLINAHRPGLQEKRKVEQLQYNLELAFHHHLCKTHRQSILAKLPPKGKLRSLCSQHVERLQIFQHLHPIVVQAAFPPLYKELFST
From the text: A reporter assay was used to test functional activity of RORγt modulatory compounds on transcriptional activation driven by the RORγt LBD. Cells used in the assay were co-transfected with two constructs. The first construct, pBIND-RORγt LBD, contained the wild type human RORγt LBD fused to the DNA binding domain of the GAL4 protein. The second construct, pGL4.31 (Promega Cat no. C935A), contained multiple GAL4 responsive DNA elements upstream of firefly luciferase. […] The mutant construct was called pBIND-RORγt-AF2.
The pBIND vector contains the GAL4 DNA Binding Domain (GAL4 DBD) and the renilla luciferase gene under control of the SV40 promoter. Renilla luciferase expression serves as a control for transfection efficiency and cell viability.
The reporter assay was performed by transiently transfecting HEK293T cells with 5 µg of pBIND-RORγt LBD or pBIND-RORγt LBD-AF2 and 5 µg pGL4.31 (Promega Cat no. C935A) using Fugene 6 (Invitrogen Cat no. E2691) at a 1:6 ratio of DNA: Fugene 6 in a T-75 flask in which cells were at least 80% confluent. Twenty four hours after bulk transfection, cells were plated into 96-well plates at 50,000 cells/well in phenol-red free DMEM containing 5% Lipid Reduced FCS and Pen/Strep. Six hours after plating, cells were treated with compounds for 24 hours. Media was removed and cells were lysed with 50 µL 1x Glo Lysis Buffer (Promega). Dual Glo Luciferase Reagent (50 µL/well) was then added and firefly luciferase luminescence was read on an Envision after a ten minute incubation. Finally, Stop and Glo reagent (50 µL/well) was added and renilla luciferase luminescence was read on an Envision instrument after a ten minute incubation. To calculate the effect of compounds on RORγt activity, the ratio of firefly to renilla luciferase was determined and plotted against compound concentration. Agonist compounds increase RORγt-driven luciferase expression, and antagonist or inverse agonist compounds decrease luciferase expression.

[2] = target: T2, wild type human RORγt ligand binding domain (RORγt LBD) (Homo sapiens, UniProt P51449); assay: RORγt ThermoFluor® Assay (thermal shift, binding affinity); settings: pH 7.0, estimated from concentration response curves
T2 construct: His-tag (N); TurboTEV protease cleavage site (ENLYFQG) (N); made in house; host or cells: E. coli (pHIS1, modified pET expression vector)
T2 sequence (P51449 269-508 limits assumed): T1 sequence (P51449 269-508 limits assumed)
Description: This approach is applicable to a wide variety of systems, and rigorous in theoretical interpretation through quantitation of equilibrium binding constants (KD).
The shift in the melting point described as a ΔTm is proportional to the concentration and affinity of the ligand.
Protein and compound solutions are dispensed into black 384-well polypropylene PCR microplates (Abgene) and overlayed with silicone oil (1 µL, Fluka, type DC 200) to prevent evaporation.
Bar-coded assay plates are robotically loaded onto a thermostatically controlled PCR-type thermal block and then heated at a typical ramp-rate of 1 °C/min for all experiments. Fluorescence was measured by continuous illumination with UV light (Hamamatsu LC6) supplied via fiber optic and filtered through a band-pass filter (380-400 nm; >6 OD cutoff). Fluorescence emission of the entire 384-well plate was detected by measuring light intensity using a CCD camera (Sensys, Roper Scientific) filtered to detect 500 ± 25 nm, resulting in simultaneous and independent readings of all 384 wells. Images were collected at each temperature, and the sum of the pixel intensity in a given area of the assay plate was recorded versus temperature. Reference wells contained RORγt without compounds, and the assay conditions were as follows: • 0.065 mg/mL RORγt • 60 µM 1,8-ANS • 100 mM Hepes, pH 7.0 • 10 mM NaCl • 2.5 mM GSH • 0.002% Tween-20
Project compounds were arranged in a pre-dosed mother plate (Greiner Bio-one) wherein compounds are serially diluted in 100% DMSO by 1:2 from a high concentration of 10 mM over 12 columns within a series (column 12 is a reference well containing DMSO, no compound). The compounds were robotically dispensed directly into assay plates (1x = 46 nL) using a Hummingbird capillary liquid handling instrument (Digilab). Following compound dispense, protein and dye in buffer was added to achieve the final assay volume of 3 µL, followed by 1 µL of silicone oil.

IC50 [1] | inhibition at 6 µM [1] [%] | Kd [2] [nM] | SMILES
1700 nM | 87 | 620 | Cn1cncc1C(O)(c1ccc(Cl)cc1)c1ccc2nc(Cl)c(-c3ccccn3)c(Cl)c2c1 (stereo not drawn) [Example 5, (4-Chlorophenyl)(2,4-dichloro-3-(pyridin-2-yl)quinolin-6-yl)(1-methyl-1H-imidazol-5-yl)methanol•TFA]
1900 nM | 92 | 940 | Cn1cncc1C(O)(c1ccc(Cl)cc1)c1ccc2nc(Cl)c(-c3cccnc3)c(Cl)c2c1 (stereo not drawn) [Example 6, (4-Chlorophenyl)(2,4-dichloro-3-(pyridin-3-yl)quinolin-6-yl)(0-methyl-1H-imidazol-5-yl)methanol•TFA]
890 nM | 87 | 270 | COc1nc2ccc(C(O)(c3ccc(C(F)(F)F)nc3)c3cncn3C)cc2c(Cl)c1-c1cnn(C)c1 (stereo not drawn) [Example 8, [4-Chloro-2-methoxy-3-(1-methyl-1H-pyrazol-4-yl)quinolin-6-yl](1-methyl-1H-imidazol-5-yl)[6-(trifluoromethyl)pyridin-3-yl]methanol•TFA]
> 6000 nM | 32 | 640 | COc1nc2ccc(C(O)(c3ccc(C(F)(F)F)nc3)c3cncn3C)cc2c(Cl)c1-c1cccc(S(C)(=O)=O)c1 (stereo not drawn) [Example 11, {4-Chloro-2-methoxy-3-[3-(methylsuffonyl)phenyl]quinolin-6-yl)(1-methyl-1H-imidazol-5-yl)[6-(trifluoromethyl)pyridin-3-yl]methanol•TFA]
~2000 nM | 90 | 650 | COc1nc2ccc(C(O)(c3ccc(C(F)(F)F)nc3)c3cncn3C)cc2c(Cl)c1-c1cccc(NS(C)(=O)=O)c1 (stereo not drawn) [Example 12]
> 6000 nM | -52 | 2000 | COc1nc2ccc(C(O)(c3ccc(C(F)(F)F)nc3)c3cncn3C)cc2c(Cl)c1-c1cncc(S(C)(=O)=O)c1 (stereo not drawn) [Example 13, {4-Chloro-2-methoxy-3-[5-(methylsuflonyl)pyridin-3-yl]quinolin-6-yl)(1-methyl-1H-imidazol-5-yl)[6-(trifluoromethyl)pyridin-3-yl]methanol•TFA]
1100 nM | 55 | 6.7 | COc1nc2ccc(C(O)(c3ccc(C(F)(F)F)nc3)c3cncn3C)cc2c(Cl)c1-c1ccc(Cl)s1 (stereo not drawn) [Example 14a, [4-Chloro-3-(5-chlorothiophen-2-yl)-2-methoxyquinofin-6-yl](1-methyl-1H-imidazol-5-yl)[6-(trifluoromethyl)pyridin-3-yl]methanol•TFA]
> 6000 nM | -29 | 21 | COc1ncc(-c2c(OC)nc3ccc(C(O)(c4ccc(C(F)(F)F)nc4)c4cncn4C)cc3c2Cl)cn1 (stereo not drawn) [Example 15, [4-Chloro-2-methoxy-3-(2-methoxypyrimidin-5-yl)quinolin-6-yl](1-methyl-1H-imidazol-5-yl)[6-(trifluoromethyl)pyridin-3-yl]methanol•TFA]
530 nM | 87 | 26 | COc1nc2ccc(C(O)(c3ccc(C(F)(F)F)nc3)c3cncn3C)cc2c(Cl)c1-c1ccc(NS(C)(=O)=O)cc1 (stereo not drawn) [Example 17, N-[4-(4-Chloro-6-{hydroxy(1-methyl-1H-imidazol-5-yl)[6-(trifluoromethyl)pyridin-3-yl]methyl}-2-methoxyquinolin-3-yl)phenyl]methamesulfonamide•TFA]
24 nM and ~40 nM | 96 | 46 | Cn1cncc1C(O)(c1ccc(C#N)cc1)c1ccc2nc(C(F)(F)F)c(-c3ccccc3)c(C#N)c2c1 (stereo not drawn) [Example 28, 6-((4-Cyanophenyl)(hydroxy)(1-methyl-1H-imidazol-5-yl)methyl)-3-phenyl-2-(trifluoromethyl)quinoline-4-carbonitrile•TFA]
85 nM | 97 | 26 | CC(=O)N1CCC(C(O)(c2cccnc2)c2ccc3nc(C(F)(F)F)c(-c4ccccc4)c(Cl)c3c2)CC1 (stereo not drawn) [Example 29, 1-(4-((4-Chloro-3-phenyl-2-(trifluoromethyl)quinolin-6-yl)(hydroxy)(pyridin-3-yl)methyl)piperidin-1-yl)ethanone•TFA]
650 nM | 98 | 160 | COc1c(-c2ccccc2)c(C(F)(F)F)nc2ccc(C(O)(c3ccc(Cl)cc3)c3cncn3C)cc12 (stereo not drawn) [Example 33a, (4-Chlorophenyl)(4-methoxy-3-phenyl-2-(trifluoromethyl)quinolin-6-yl)(1-methyl-1H-imidazol-5-yl)methanol•TFA]
11 nM and ~40 nM | 97 | 0.89 | COc1c(-c2ccccc2)c(Cl)nc2ccc(C(O)(c3sc(C)nc3C)c3cnnn3C)cc12 (stereo not drawn) [Example 36]
30 nM | 93 | 0.26 | COc1c(-c2ccccc2)c(Cl)nc2ccc(C(O)(c3sc(C)nc3C)c3cncn3C)cc12 (stereo not drawn) [Example 38, (2-Chloro-4-methoxy-3-phenylquinolin-6-yl)(2,4-dimethylthiazol-5-yl)(1-methyl-1H-imidazol-5-yl)methanol•TFA]
34 nM | 103 | 5.2 | Cc1ncc(C(O)(c2ccc3nc(Cl)c(-c4ccccc4)c(Cl)c3c2)c2cnnn2C)n1C (stereo not drawn) [Example 39, (2,4-Dichloro-3-phenylquinolin-6-yl)(1,2-dhnethyl-1H-imidazol-5-yl)(1-methyl-1H-1,2,3-triazol-5-yl)methanol]
23 nM | 104 | 1.5 | COc1c(-c2ccccc2)c(Cl)nc2ccc(C(O)(c3cnnn3C)c3cnc(C)n3C)cc12 (stereo not drawn) [Example 40a, (2-Chloro-4-metboxy-3-phenylquinolin-6-yl)(1,2-dimethyl-1H-imidazol-5-yl)(1-methyl-1H-1,2,3-triazol-5-yl)methanol•TFA]
320 nM | 98 | 89 | COc1nc2ccc(C(O)(c3cnnn3C)c3cnc(C)n3C)cc2c(Cl)c1-c1ccccc1 (stereo not drawn) [Example 41a, (4-Chloro-2-methoxy-3-phenylquinolin-6-yl)(1,2-dimethyl-1H-imidazol-5-yl)(1-methyl-1H-1,2,3-triazol-5-yl)methanol•TFA]

SMILES | IC50 [1] | inhibition at 6 µM [1] [%] | Kd [2] [nM]
COc1nc2ccc(C(O)(c3sc(C)nc3C)c3cnnn3C)cc2c(Cl)c1-c1ccccc1 (stereo not drawn) [Example 35, (4-Chloro-2-methoxy-3-phenylquinolin-6-yl)(2,4-dimethylthiazol-5-yl)(1-methyl-1H-1,2,3-triazol-5-yl)methnol•TFA] | 160 nM | 101 | 18
COc1nc2ccc(C(O)(c3sc(C)nc3C)c3cncn3C)cc2c(Cl)c1-c1ccccc1 (stereo not drawn) [Example 37, (4-Chloro-2-methoxy-3-phenylquinolin-6-yl)(2,4-dimethylthiazol-5-yl)(1-methyl-1H-imidazol-5-yl)methanol•TFA] | 260 nM | 90 | 7.2
